Data set [1] concerns the target T1, human recombinant Dipeptidyl peptidase IV enzyme (hrDPP IV) (Homo sapiens, UniProt P27487).
T1 construct: purchased R&D systems
Description: DPP IV assay, cleavage of H-Gly-Pro-AMC by human recombinant DPP-IV enzyme. Conditions: for inhibition at 0.3 µM: 300 nM compound concentration. The format is biochemical. The method, then: DPP IV activity was determined by the cleavage rate of 7-amino 4-methylcoumarin (AMC) from the substrate H-Gly-Pro-AMC. In brief, the assay was conducted by adding 3 ng of human recombinant Dipeptidyl peptidase IV enzyme (hrDPP IV, available commercially from R&D systems) in 70 μL of the assay buffer (25 mM HEPES, 140 mM NaCl and 1% BSA, pH 7.8) to a 96 well black flat bottom microtitre plate. Test compounds were added as 10 μL additions to all wells except blank and total activity wells. After incubation of test substance with enzyme for 60 minutes at room temperature, 10 μL of 100 μM substrate H-Gly-Pro-AMC was added. After mixing, the plate was left for 20 minutes at room temperature. Then the reaction was terminated by addition of 10 μL of 25% glacial acetic acid. Fluorescence was measured using Spectra Max Gemini XS (Molecular Devices, USA) at an excitation filter of 360 nm and emission filter of 460 nm.
Test compounds dissolved in DMSO were diluted with assay buffer at different concentrations and tested in duplicates. Percentage inhibition was calculated with respect to total activity. IC50 value was calculated using Prism Software.

The structures appear in SMILES notation. Structures can show the parent of a compound that is named as a salt.

Broadly, the melting point is the temperature, or range, at which the solid turns liquid. As a reminder, the IC50 is the concentration needed to halve the response being measured. The term inhibition denotes the change of the read-out against control, counted positive when it falls.

T1 sequence (P27487 whole entry): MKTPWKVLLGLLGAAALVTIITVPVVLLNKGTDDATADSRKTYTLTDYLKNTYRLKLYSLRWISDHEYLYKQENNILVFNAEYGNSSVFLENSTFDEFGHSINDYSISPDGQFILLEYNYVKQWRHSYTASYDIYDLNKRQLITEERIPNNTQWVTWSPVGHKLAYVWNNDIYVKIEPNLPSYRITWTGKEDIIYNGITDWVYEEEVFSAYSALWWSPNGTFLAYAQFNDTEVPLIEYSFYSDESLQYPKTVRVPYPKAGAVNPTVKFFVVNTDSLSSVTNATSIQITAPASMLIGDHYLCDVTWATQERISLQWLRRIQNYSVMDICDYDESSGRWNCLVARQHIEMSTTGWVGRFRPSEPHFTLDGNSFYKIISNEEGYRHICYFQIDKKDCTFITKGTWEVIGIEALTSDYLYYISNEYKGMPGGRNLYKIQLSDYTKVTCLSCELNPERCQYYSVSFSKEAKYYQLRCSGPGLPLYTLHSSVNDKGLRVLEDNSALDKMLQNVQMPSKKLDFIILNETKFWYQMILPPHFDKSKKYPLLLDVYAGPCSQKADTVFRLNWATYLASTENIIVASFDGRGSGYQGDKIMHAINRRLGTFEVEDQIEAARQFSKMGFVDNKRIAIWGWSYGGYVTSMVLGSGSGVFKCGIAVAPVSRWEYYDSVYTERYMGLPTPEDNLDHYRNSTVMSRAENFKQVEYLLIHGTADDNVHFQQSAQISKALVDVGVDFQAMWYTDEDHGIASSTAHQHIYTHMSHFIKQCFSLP

With `CC1(C)[C@H](Cn2cc(CO)nn2)CC[C@]1(C)NCC(=O)N1C[C@@H](F)C[C@H]1C#N` [Example 16, (2S,4S)-4-Fluoro-1-(2-((1S,3R)-3-((4-(hydroxymethyl)-1H-1,2,3-triazol-1-yl)methyl)-1,2,2-trimethylcyclopentylamino)acetyl)pyrrolidine-2-carbonitrile], the melting point is 76 to 78 °C. In data set [1], the IC50 came out at 32.5 nM. In turn, `CC1(C)[C@@H](CN2CCCC2)CC[C@@]1(C)NCC(=O)N1C[C@@H](F)C[C@H]1C#N` [Example 36, (2S,4S)-4-Fluoro-1-(2-((1R,3S)-1,2,2-trimethyl-3-(pyrrolidin-1-ylmethyl)cyclopentylamino)acetyl)pyrrolidine-2-carbonitrile] yielded a melting point of 108 to 112 °C. Also, the inhibition at 0.3 µM in data set [1] amounted to 31.9%.

As for `CC1(C)[C@@H](Cn2cncn2)CC[C@@]1(C)NCC(=O)N1C[C@@H](F)C[C@H]1C#N` [Example 1, (2S,4S)-1-(2-((1R,3S)-3-((1H-1,2,4-Triazol-1-yl)methyl)-1,2,2-trimethylcyclopentylamino)acetyl)-4-fluoropyrrolidine-2-carbonitrile], the melting point lay within 186 to 188 °C. Further, the IC50 in data set [1] is 222 ± 56.8 nM. In turn, `CC1(C)[C@H](CS(=O)(=O)c2ccc(S(C)(=O)=O)cc2)CC[C@]1(C)NCC(=O)N1CCC[C@H]1C#N` [Example 46, (S)-1-(2-((1S,3R)-1,2,2-Trimethyl-3-((4-(methylsulfonyl)phenylsulfonyl)methyl)cyclopentylamino)acetyl)pyrrolidine-2-carbonitrile] displayed a melting point of 158 to 160 °C. In addition, the inhibition at 0.3 µM in data set [1] stood at 40.9%. In the same order, the values of `CN1C[C@]2(C)CC[C@](NCC(=O)N3C[C@@H](F)C[C@H]3C#N)(C1)C2(C)C` [Example 76, (2S,4S)-4-Fluoro-1-(2-((1R,5R)-3,5,8,8-tetramethyl-3-azabicyclo[3.2.1]octan-1-ylamino)acetyl)pyrrolidine-2-carbonitrile] are 122 to 126 °C and 4.25%.

`CC1(C)[C@@H](Cn2nccn2)CC[C@@]1(C)NCC(=O)N1C[C@@H](F)C[C@H]1C#N` [Example 10, (2S,4S)-1-(2-((1R,3S)-3-((2H-1,2,3-Triazol-2-yl)methyl)-1,2,2-trimethylcyclopentylamino)acetyl)-4-fluoropyrrolidine-2-carbonitrile] displayed a melting point of 84 to 87 °C. For the same molecule, in data set [1], the IC50 turned out to be 215 nM. For `CC1(C)[C@H](NCC(=O)N2C[C@@H](F)C[C@H]2C#N)CC[C@]1(C)c1nc(-c2ccncc2)no1` [Example 71, (2S,4S)-4-Fluoro-1-(2-((1R,3S)-2,2,3-trimethyl-3-(3-(pyridin-4-yl)-1,2,4-oxadiazol-5-yl)cyclopentylamino)acetyl)pyrrolidine-2-carbonitrile], the melting point fell in the range of 167 to 171 °C. The IC50 in data set [1] turned out to be 22.8 nM. In the case of `CC1(C)[C@@H](CS(=O)(=O)c2ccc(S(C)(=O)=O)cc2)CC[C@@]1(C)NCC(=O)N1C[C@@H](F)C[C@H]1C#N` [Example 42, (2S,4S)-4-Fluoro-1-(2-((1R,3S)-1,2,2-trimethyl-3-((4-(methylsulfonyl)phenylsulfonyl)methyl)cyclopentylamino)acetyl)pyrrolidine-2-carbonitrile], the melting point fell in the range of 220 to 224 °C. In data set [1], the IC50 is 91.3 nM. In the same order, the values of `Cc1noc([C@@H]2CC[C@](C)(NCC(=O)N3C[C@@H](F)C[C@H]3C#N)C2(C)C)n1` [Example 51, (2S,4S)-4-Fluoro-1-(2-((1S,3R)-1,2,2-trimethyl-3-(3-methyl-1,2,4-oxadiazol-5-yl)cyclopentylamino)acetyl)pyrrolidine-2-carbonitrile] are 160 to 163 °C and 91.4 nM. In turn, `CC1(C)[C@@H](CS(=O)(=O)c2ccc(S(C)(=O)=O)cc2)CC[C@@]1(C)NCC(=O)N1CCC[C@H]1C#N` [Example 44, (S)-1-(2-((1R,3S)-1,2,2-Trimethyl-3-((4-(methylsulfonyl)phenylsulfonyl)methyl)cyclopentylamino)acetyl)pyrrolidine-2-carbonitrile] came in with a melting point of 162 to 166 °C. Further, the IC50 in data set [1] worked out at 582 nM. As for `CC1(C)[C@@H](NCC(=O)N2C[C@@H](F)C[C@H]2C#N)CC[C@@]1(C)CCCn1cncn1` [Example 83, (2S,4S)-1-(2-((1S,3R)-3-(3-(1H-1,2,4-Triazol-1-yl)propyl)-2,2,3-trimethylcyclopentylamino)acetyl)-4-fluoropyrrolidine-2-carbonitrile], the melting point was 152 to 154 °C. In addition, in data set [1], the IC50 was found to be 4.03 nM and the inhibition at 0.3 µM was 93.9%. `CC1(C)[C@@H](CNc2ccc(C(F)(F)F)cn2)CC[C@@]1(C)NCC(=O)N1C[C@@H](F)C[C@H]1C#N` [Example 27, (2S,4S)-4-Fluoro-1-(2-((1R,3S)-1,2,2-trimethyl-3-((5-(trifluoromethyl)pyridin-2-ylamino)methyl)cyclopentylamino)acetyl)pyrrolidine-2-carbonitrile]: the melting point was 52 to 58 °C. The inhibition at 0.3 µM in data set [1] was 47.4%. On to `CC1(C)[C@@H](CN2CCCS2(=O)=O)CC[C@@]1(C)NCC(=O)N1C[C@@H](F)C[C@H]1C#N` [Example 28, (2S,4S)-1-(2-((1R,3S)-3-[(1,1-Dioxidoisothiazolidin-2-yl)methyl]-1,2,2-trimethylcyclopentylamino)acetyl)-4-fluoropyrrolidine-2-carbonitrile], for which the melting point lay within 126 to 128 °C. Besides, the IC50 in data set [1] turned out to be 183 nM. `CC1(C)[C@H](CNS(C)(=O)=O)CC[C@]1(C)NCC(=O)N1C[C@@H](F)C[C@H]1C#N` [Example 18, N-(((1R,3S)-3-(2-((2S,4S)-2-Cyano-4-fluoropyrrolidin-1-yl)-2-oxoethylamino)-2,2,3-trimethylcyclopentyl)methyl)methanesulfonamide] came in with a melting point of 154 to 157 °C. The inhibition at 0.3 µM in data set [1] was found to be 84.9%.

In turn, `CC1(C)[C@@H](CN2CC[C@@H](O)C2)CC[C@@]1(C)NCC(=O)N1C[C@@H](F)C[C@H]1C#N` [Example 38, (2S,4S)-4-fluoro-1-(2-((1R,3S)-3-(((R)-3-hydroxypyrrolidin-1-yl)methyl)-1,2,2-trimethylcyclopentylamino)acetyl)pyrrolidine-2-carbonitrile] yielded a melting point of 130 to 135 °C. Besides, in data set [1], the inhibition at 0.3 µM worked out at 42.6%. In the same order, the values of `CC1(C)[C@H](Cc2noc(-c3ccc(F)cc3)n2)CC[C@]1(C)NCC(=O)N1C[C@@H](F)C[C@H]1C#N` [Example 62, (2S,4S)-4-Fluoro-1-(2-((1S,3S)-3-((5-(4-fluorophenyl)-1,2,4-oxadiazol-3-yl)methyl)-1,2,2-trimethylcyclopentylamino)acetyl)pyrrolidine-2-carbonitrile] are 158 to 216 °C and 79.8%.

Molecule `Cc1noc([C@H]2CC[C@@](C)(NCC(=O)N3C[C@@H](F)C[C@H]3C#N)C2(C)C)n1` [Example 50, (2S,4S)-4-Fluoro-1-(2-((1R,3S)-1,2,2-trimethyl-3-(3-methyl-1,2,4-oxadiazol-5-yl)cyclopentylamino)acetyl)pyrrolidine-2-carbonitrile] yielded a melting point of 147 to 151 °C. Further, in data set [1], the inhibition at 0.3 µM is 15%. For `CN1C(=O)[C@]2(C)CC[C@](NCC(=O)N3CCC[C@H]3C#N)(C1=O)C2(C)C` [Example 75, (S)-1-(2-((1R,5R)-3,5,8,8-Tetramethyl-2,4-dioxo-3-azabicyclo[3.2.1]octan-1-ylamino)acetyl)pyrrolidine-2-carbonitrile], the melting point lay in the range of 141 to 144 °C.

`CC1(C)[C@@H](CS(=O)(=O)c2ccc(S(C)(=O)=O)cc2)CC[C@@]1(C)NCC(=O)N1C[C@H](F)C[C@H]1C#N` [Example 43, (2S,4R)-4-Fluoro-1-(2-((1R,3S)-1,2,2-trimethyl-3-((4-(methylsulfonyl)phenylsulfonyl)methyl)cyclopentylamino)acetyl)pyrrolidine-2-carbonitrile] yielded a melting point of 163 to 166 °C.

As to `CC1(C)[C@@H](Cn2cncn2)CC[C@@]1(C)NCC(=O)N1CCC[C@H]1C#N` (as salt: methanesulfonate) [Example 9, (S)-1-(2-((1R,3S)-3-((1H-1,2,4-Triazol-1-yl)methyl)-1,2,2-trimethylcyclopentylamino)acetyl)pyrrolidine-2-carbonitrilemethanesulfonate], the melting point lay within 150 to 155 °C.

`CC1(C)[C@@H](Cn2cnnn2)CC[C@@]1(C)NCC(=O)N1C[C@@H](F)C[C@H]1C#N` (as salt: methanesulfonate) [Example 31, (2S,4S)-1-(2-((1R,3S)-3-((1H-Tetrazol-1-yl)methyl)-1,2,2-trimethylcyclopentylamino)acetyl)-4-fluoropyrrolidine-2-carbonitrile methanesulfonate] returned a melting point of 210 to 214 °C. In turn, `CC1(C)[C@@]2(C)CC[C@]1(NCC(=O)N1CCC[C@H]1C#N)C(=O)OC2` [Example 79, (S)-1-(2-((1R,5R)-5,8,8-Trimethyl-2-oxo-3-oxabicyclo[3.2.1]octan-1-ylamino)acetyl)pyrrolidine-2-carbonitrile] returned a melting point of 174 to 177 °C.

The values are drawn from patent US8466145B2, “Dipeptidyl peptidase IV inhibitors” (Orchid Chemicals & Pharmaceuticals Limited, priority 2009, dated 2013).
